According to the supplement of paper PMC10307832:

The cell lines below were run with COc1cc(Nc2ncc(F)c(Nc3ccc4c(n3)NC(=O)C(C)(C)O4)n2)cc(OC)c1OC [R406] + Cc1nc(Nc2ncc(C(=O)Nc3c(C)cccc3Cl)s2)cc(N2CCN(CCO)CC2)n1 [Dasatinib] (partner 0.075 µM) (assay: relative viability (nuclei count vs DMSO), 5 days (fraction); higher = more cells survive). Conditions: first compound 0.8 µM.
Method in brief: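 A single step with final 0.05% Triton X-100, 1% formaldehyde and 1 ug/ml Hoechst fixed the cells and stained nuclei 5 days after treatment. Lung cancer cell lines in 1536-well plates had been treated by pin tool the day after seeding with one drug alone or a fixed anchor-drug dose plus five library-drug doses (not always all listed) in √10 steps, and nuclei were counted on 4× images. Relative viability is the ratio of nuclei in treated wells to nuclei in vehicle wells, taken as the median of duplicate plates.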
LU99A gave a relative viability of 0.548.
Work on BEN yielded a relative viability of 0.309.
Work on HARA yielded a relative viability of 0.296.
In the case of SW 900, the relative viability is reported as 0.79.
Cell Line NCI-H322M has a relative viability of 0.26.
LCLC-97TM1 was tested, and the relative viability was 0.793.
NCI-H2009 showed a relative viability of 0.328.
Cell Line A-427 has a relative viability of 0.74.
Cell Line NCI-H460 has a relative viability of 0.586.
In the case of NCI-H727, the relative viability is reported as 0.369.
In the case of NCI-H1734, the relative viability is reported as 0.459.
Cell Line NCI-H520 has a relative viability of 0.223.
NCI-H2347 showed a relative viability of 0.324.
SW 1573 was tested, and the relative viability was 0.602.
In the case of NCI-H1395, the relative viability is reported as 0.434.
201T gave a relative viability of 0.502.
NCI-H1915 showed a relative viability of 0.31.
In the case of HCC-827, the relative viability is reported as 0.325.
LXF-289 was tested, and the relative viability was 0.234.
NCI-H23 showed a relative viability of 0.902.
NCI-H650 showed a relative viability of 0.483.
Work on CAL-12T yielded a relative viability of 0.483.
NCI-H1651 was tested, and the relative viability was 0.451.
Work on EPLC-272H yielded a relative viability of 0.321.
Cell Line NCI-H2228 has a relative viability of 0.646.
Cell Line NCI-H1355 has a relative viability of 0.777.
With NCI-H3122 the relative viability was 0.832.
NCI-H1437 gave a relative viability of 0.369.
Work on NCI-H1755 yielded a relative viability of 0.407.
Work on NCI-H2023 yielded a relative viability of 0.699.

Same assay, conditions: first compound 2.53 µM
NCI-H1793 showed a relative viability of 0.184.
NCI-H2405 showed a relative viability of 0.198.
In the case of HOP-62, the relative viability is reported as 0.729.
SK-MES-1 gave a relative viability of 0.137.
In the case of LU99A, the relative viability is reported as 0.377.
BEN gave a relative viability of 0.413.
Cell Line HARA has a relative viability of 0.248.
SW 900 was tested, and the relative viability was 0.23.
Work on NCI-H322M yielded a relative viability of 0.24.
LCLC-97TM1 was tested, and the relative viability was 0.722.
In the case of NCI-H2009, the relative viability is reported as 0.182.
With A-427 the relative viability was 0.427.
Work on NCI-H460 yielded a relative viability of 0.323.
For NCI-H1734, the relative viability was 0.393.
NCI-H520 gave a relative viability of 0.198.
With NCI-H2347 the relative viability was 0.319.
In the case of SW 1573, the relative viability is reported as 0.366.
Cell Line NCI-H1395 has a relative viability of 0.399.
201T gave a relative viability of 0.467.
HCC-827 was tested, and the relative viability was 0.312.
Work on LXF-289 yielded a relative viability of 0.135.
NCI-H650 showed a relative viability of 0.426.
CAL-12T showed a relative viability of 0.0973.
Work on NCI-H1651 yielded a relative viability of 0.221.
Work on EPLC-272H yielded a relative viability of 0.128.
NCI-H2228 showed a relative viability of 0.195.
With NCI-H1355 the relative viability was 0.491.
NCI-H1437 was tested, and the relative viability was 0.286.
For NCI-H1755, the relative viability was 0.264.
Work on NCI-H2023 yielded a relative viability of 0.357.

Same assay, conditions: first compound 8 µM
Cell Line NCI-H1793 has a relative viability of 0.164.
NCI-H2405 was tested, and the relative viability was 0.142.
Work on HOP-62 yielded a relative viability of 0.391.
Cell Line SK-MES-1 has a relative viability of 0.136.
Work on LU99A yielded a relative viability of 0.271.
In the case of BEN, the relative viability is reported as 0.31.
For HARA, the relative viability was 0.113.
SW 900 showed a relative viability of 0.0973.
In the case of NCI-H322M, the relative viability is reported as 0.208.
With LCLC-97TM1 the relative viability was 0.602.
Work on NCI-H2009 yielded a relative viability of 0.13.
For A-427, the relative viability was 0.54.
Cell Line NCI-H460 has a relative viability of 0.257.
NCI-H727 showed a relative viability of 0.3.
NCI-H1734 was tested, and the relative viability was 0.27.
Work on NCI-H520 yielded a relative viability of 0.189.
Work on NCI-H2347 yielded a relative viability of 0.299.
SW 1573 gave a relative viability of 0.149.
For NCI-H1395, the relative viability was 0.356.
With 201T the relative viability was 0.41.
